Test results: BindingDB's records for doi:10.1021/jm970815r (Eisai, 1998)

Experiment: Inhibition of Phosphodiesterase 5 from porcine platelets

| IC50 | Structure (SMILES) |
| --- | --- |
| 0.063 µM | O=[N+]([O-])c1ccc2c(Cl)nnc(NCc3ccc4c(c3)OCO4)c2c1 [Benzo[1,3]dioxol-5-ylmethyl-(4-chloro-7-nitro-phthalazin-1-yl)-amine] |
| 0.0035 µM | COc1ccc(CNc2nnc(Cl)c3ccc([N+](=O)[O-])cc23)cc1Cl [(3-Chloro-4-methoxy-benzyl)-(4-chloro-7-nitro-phthalazin-1-yl)-amine] |
| 0.0053 µM | COc1ccc(CNc2nnc(Cl)c3ccc(C(F)(F)F)cc23)cc1Cl [(3-Chloro-4-methoxy-benzyl)-(4-chloro-7-trifluoromethyl-phthalazin-1-yl)-amine] |
| 0.81 µM | COc1ccc(CNc2nnc(Cl)c3cc(Cl)ccc23)cc1Cl [(3-Chloro-4-methoxy-benzyl)-(4,6-dichloro-phthalazin-1-yl)-amine] |

More lines, now with the values behind:

| Structure (SMILES) | IC50 |
| --- | --- |
| COc1ccc(CNc2nnc(Cl)c3cc(C#N)ccc23)cc1Cl [4-Chloro-1-(3-chloro-4-methoxy-benzylamino)-phthalazine-6-carbonitrile] | 0.14 µM |
| CCOc1ccc(CNc2nnc(Cl)c3ccc(C#N)cc23)cc1Cl [1-Chloro-4-(3-chloro-4-ethoxy-benzylamino)-phthalazine-6-carbonitrile] | 0.049 µM |
| COc1ccc(CNc2nnc(Cl)c3ccc(C#N)cc23)cc1 [1-Chloro-4-(4-methoxy-benzylamino)-phthalazine-6-carbonitrile] | 0.14 µM |
| COc1ccc(CNc2nnc(Cl)c3ccc(C#N)cc23)cc1Cl | 0.0048 µM |
